This is an account of results in ChEMBL document CHEMBL5252626, “Design and synthesis of novel GluN2A NMDAR positive allosteric modulators via scaffold hopping strategy as anti-stroke therapeutic agents” (Bioorg Med Chem, 2023).

The test system of series [1] is PC-12. In words: Neuroprotective activity against glutamate-induced neurotoxicity in rat PC-12 cells assessed as survival rate at 0.1 uM by WST-8 assay (reference value: 40.8+/-2.0%). The class given is functional.
Series [2] relates to PC-12. The series can be described thus: Neuroprotective activity against glutamate-induced neurotoxicity in rat PC-12 cells assessed as survival rate at 10 uM by WST-8 assay. The class given is functional.
The test system of series [3] is PC-12. The series can be described thus: Neuroprotective activity against glutamate-induced neurotoxicity in rat PC-12 cells assessed as survival rate at 1 uM by WST-8 assay. The class given is functional. (Tetrazolium dyes change colour on reduction, which living cells bring about.)
Series [4] concerns PC-12. The series can be described thus: Cytotoxicity in rat PC-12 cells assessed as reduction in cell viability at 10 uM incubated for 24 hrs by CCK-8 method. Particulars: pc-12, 24 h. The class given is toxicity, cell-based.
Series [5] can be described thus: Solubility of the compound in water by UV spectophotometry analysis. The class given is physicochemical.
Series [6] concerns Mus musculus. In words: Neuroprotective activity in middle cerebral artery occlusion-induced C57BL/6 mouse model assessed as reduction in infarct volume at 2 mg/kg, sc incubated with compound for 2 hrs after reperfusion by TTC staining based assay. The class given is functional.
In series [7] the target is Glutamate NMDA receptor; GRIN1/GRIN2B (Homo sapiens) (UniProt Q05586+Q13224). The series can be described thus: Positive allosteric modulation of GluN1/GluN2B receptor (unknown origin) stably expressed in HEK293 cells assessed as glutamate/glycine induced increase in intracellular calcium level at 10 uM incubated for 30 mins followed by addition of glutamate/glycine by Ca2+ influx assay. The class given is cell-based. Particulars: filed as positive allosteric modulator. On the technique in general: Calcium assays in cells follow changes in intracellular calcium, usually with a dye or a luminescent sensor.

Series [8] concerns Mus musculus. The series can be described thus: Neuroprotective activity in middle cerebral artery occlusion-induced C57BL/6 mouse model assessed as reduction in infarct volume at 2 mg/kg, sc incubated with compound for 2 hrs after reperfusion by TTC staining based assay relative to control. The class given is functional. On the set-up: scale not given: the % may be the effect or the level left.

In series [9] the target is Glutamate NMDA receptor; GRIN1/GRIN2A (Homo sapiens) (UniProt Q05586+Q12879). In words: Positive allosteric modulation of GluN1/GluN2A receptor (unknown origin) stably expressed in HEK293 cells assessed as glutamate/glycine induced increase in intracellular calcium level at 10 uM incubated for 30 mins followed by addition of glutamate/glycine by Ca2+ influx assay. The class given is cell-based. Particulars: filed as positive allosteric modulator.

In brackets after ≈: the same amount, converted by molar mass. Activity calls are given as the source filed them. The rule behind the calls is not given here.

In the case of `N#Cc1ccc(NC(=O)c2c[nH]c3ccccc3c2=O)cc1`, the Activity in the series on PC-12 [1] amounted to 34.7%; in the series with PC-12 [2], 40.7%; with PC-12 [3], 39.7%; in the series with PC-12 [4] it was 71.9%.
Consider `COc1ccc(NC(=O)C2=Cc3ccccc3OC2)cc1`, for which the Activity was determined as 43.3% with PC-12 [1], 61.5% in the series on PC-12 [2], 35% with PC-12 [3] and 100.3% in the series with PC-12 [4].
Turning to `COC(=O)c1ccc(NC(=O)c2c[nH]c3ccccc3c2=O)cc1`, the Activity in the series with PC-12 [1] amounted to 61.6%; with PC-12 [2] it was 49.7%; with PC-12 [3], 61.3%; with PC-12 [4], 73.6%.
Taken in the same sequence, the figures for `COc1ccccc1NC(=O)C1=Cc2c(OC)cccc2OC1` were 58.2%, 50.9%, 56.1% and 81.8%.
Taken in the same sequence, the figures for `O=C(Nc1cccnc1)c1c[nH]c2ccccc2c1=O` were 42.5%, 39.3%, 38.5% and 80.9%.
One may read the solubility as how much of the substance goes into solution per volume. Turning to `CC(=O)Nc1ccc(NC(=O)C2=Cc3ccccc3OC2)cc1`, the Activity in the series with PC-12 [1] is 62.1%; in the series with PC-12 [2], 57.3%; with PC-12 [3], 54.1%; with Mus musculus [6], 93 mm; with PC-12 [4], 84.7%. Also, in series [5], the solubility was 364 µM (≈ 112 µg/mL).
For `COc1cccc2c1OCC(C(=O)Nc1ccc(Br)cn1)=C2`, the Activity is reported as 65.3% in the series with PC-12 [1], 43.7% with PC-12 [2], 58.2% with PC-12 [3] and 75.3% with PC-12 [4].
Take `COc1ccccc1NC(=O)c1c[nH]c2c(Cl)cccc2c1=O`: the result in series [7] and in [9] was Active. For the same compound, the Activity with PC-12 [1] is given as 64.3%; in the series on PC-12 [2], 52.8%; with PC-12 [3], 64.9%; with Mus musculus [8], 49%; in the series with PC-12 [4], 84.4%. This compound also yielded a solubility in series [5] of 13.7 µM (≈ 4.5 µg/mL).
In the case of `CNC(=O)c1ccccc1NC(=O)c1c[nH]c2c(Cl)cccc2c1=O`, the Activity with PC-12 [1] was found to be 47.6%; with PC-12 [2] it was 42.6%; in the series on PC-12 [3], 47.3%; in the series with PC-12 [4], 93.8%.
Taken in the same sequence, the figures for `CNC(=O)c1ccccc1NC(=O)C1=Cc2c(Br)cccc2OC1` were 48.1%, 47.9%, 46.1% and 89.2%.
On the same counts, the results for `COc1ccccc1CNC(=O)c1c[nH]c2ccccc2c1=O` are 50.3%, 17.7%, 44.4% and 28.8%.
On the same counts, the results for `COc1cccc2c1C=C(C(=O)Nc1cc(Cl)ccc1O)CO2` are 51.2%, 64.8%, 58.5% and 95%.
With `COc1cccc2c1OCC(C(=O)Nc1ccc(NC(C)=O)cc1)=C2`, the Activity in the series on PC-12 [1] is given as 53.5%; in the series on PC-12 [2] it was 41.2%; in the series on PC-12 [3], 54%; in the series with PC-12 [4] it was 67.3%.
On the same counts, the results for `COc1cccc2c(=O)c(C(=O)Nc3cc(O)ccc3C)c[nH]c12` are 34.5%, 56.1%, 46.4% and 85.8%.
Taken in the same sequence, the figures for `COc1ccccc1NC(=O)C1=Cc2ccccc2OC1` were 41.2%, 76.9%, 36.9% and 74.1%.
Taken in the same sequence, the figures for `COc1ccc(NC(=O)c2c[nH]c3ccccc3c2=O)cc1` were 71%, 53.1%, 69.8% and 81.1%.
With `COc1cccc(NC(=O)C2=Cc3ccccc3OC2)c1`, the Activity in the series with PC-12 [1] is 34.2%; with PC-12 [2], 62.6%; in the series with PC-12 [3], 35.3%; with PC-12 [4] it was 79.1%.
As to `O=C(Nc1cc(Cl)ccc1O)C1=Cc2ccccc2OC1`, the Activity in the series on PC-12 [1] is 67.6%; in the series with PC-12 [2], 52.5%; in the series on PC-12 [3], 57.2%; in the series on PC-12 [4], 92.2%.
Regarding `COC(=O)c1ccc(NC(=O)C2=Cc3ccccc3OC2)cc1`, the Activity is recorded as 58.4% in the series on PC-12 [1], 55.5% in the series on PC-12 [2], 62.6% in the series on PC-12 [3] and 91.4% in the series on PC-12 [4]. Further, in [5], the concentration in solution (solubility) came to 202 µM (≈ 62.5 µg/mL).
On the same counts, the results for `Cc1ccc(O)cc1NC(=O)c1c[nH]c2c(Cl)cccc2c1=O` are 53.6%, 41.6%, 44.7%, 92.7% and 140 µM (≈ 46 µg/mL).
Turning to `CCOc1ccc(NC(=O)c2cnc3ccccc3c2O)cc1`, the Activity in the series with PC-12 [1] is reported as 36.4%; with PC-12 [2], 52.7%; in the series with PC-12 [3] it was 28.8%; in the series with PC-12 [4], 93.2%.
On the same counts, the results for `COc1cccc2c1OCC(C(=O)Nc1cc(Cl)ccc1O)=C2` are 61.5%, 71.3%, 58.6% and 92.6%.
`COc1ccccc1NC(=O)c1c[nH]c2ccccc2c1=O`: the Activity in the series with PC-12 [1] came to 36.6%; with PC-12 [2], 31.2%; in the series with PC-12 [3], 60.1%; with PC-12 [4], 63%.
Taken in the same sequence, the figures for `COc1cccc(OC)c1NC(=O)C1=Cc2c(Br)cccc2OC1` were 45.2%, 52.8%, 46.4% and 92.9%.
Consider `CC(=O)c1ccc(NC(=O)c2c[nH]c3ccccc3c2=O)cc1`, for which the Activity is listed as 30.8% with PC-12 [1], 40.2% in the series with PC-12 [2], 30.8% in the series on PC-12 [3] and 74.6% in the series on PC-12 [4].
With `COC(=O)c1ccc(NC(=O)C2=Cc3cccc(OC)c3OC2)cc1`, the Activity in the series with PC-12 [1] is 58.7%; in the series on PC-12 [2], 41.2%; in the series with PC-12 [3], 57.5%; with PC-12 [4], 73.3%.
Taken in the same sequence, the figures for `COc1ccccc1CNC(=O)c1c[nH]c2c(Cl)cccc2c1=O` were 44.4%, 23.2%, 41.2% and 66.1%.
Consider `CNC(=O)c1ccccc1NC(=O)c1c[nH]c2ccccc2c1=O`, for which the Activity in the series with PC-12 [1] is 56.4%; with PC-12 [2] it was 53.7%; with PC-12 [3] it was 55.9%; in the series with PC-12 [4], 90.6%. The same compound registered a solubility in [5] of 62.3 µM (≈ 20 µg/mL).
Taken in the same sequence, the figures for `COc1cccc(NC(=O)c2c[nH]c3ccccc3c2=O)c1` were 65.5%, 44.5%, 59.5%, 100.8% and 454 µM (≈ 133 µg/mL).
As to `COc1ccc(NC(=O)c2c[nH]c3c(Cl)cccc3c2=O)cc1`, the Activity stood at 33.6% in the series on PC-12 [1], 54.3% with PC-12 [2], 35.5% in the series with PC-12 [3] and 79.9% in the series on PC-12 [4].
For `CC(=O)Nc1ccc(NC(=O)c2c[nH]c3ccccc3c2=O)cc1`, the Activity in the series with PC-12 [1] is given as 57.2%; with PC-12 [2], 65.4%; with PC-12 [3], 66.6%; in the series on PC-12 [4], 101.5%. In addition, the solubility in [5] is less than 6.2 µM.
On to `CC(=O)Nc1ccc(NC(=O)C2=Cc3c(Br)cccc3OC2)cc1`, for which the Activity with PC-12 [1] is 46.7%; in the series with PC-12 [2], 41.7%; with PC-12 [3] it was 46.9%; with PC-12 [4] it was 92.9%.
Taken in the same sequence, the figures for `COc1cccc2c1C=C(C(=O)Nc1ccc(NC(C)=O)cc1)CO2` were 59.2%, 56.9%, 76.9% and 85.5%.
Taken in the same sequence, the figures for `O=C(NCc1ccc(Br)cc1)c1cc2c(Br)cccc2oc1=O` were 40.87%, 39.9%, 40.76% and 94.97%.
On the same counts, the results for `COc1ccc(NC(=O)c2c[nH]c3ccccc3c2=O)c(C)c1` are 33.6%, 44%, 34.2% and 62%.
Consider `O=C(NCc1cccc(Cl)c1)c1cc2c(Br)cccc2oc1=O`, for which the Activity amounted to 45.4% in the series on PC-12 [1], 43.1% in the series with PC-12 [2], 45.2% in the series on PC-12 [3] and 97% with PC-12 [4].
Taken in the same sequence, the figures for `CC(C(O)c1ccc(O)cc1)N1CCC(Cc2ccccc2)CC1` (centres undefined) [IFENPRODIL] were 41.4%, 40.3%, 46.4% and 82.3%.
